Structures are written as SMILES. ≈ marks a conversion by molar mass, not a printed value.

The MIC is the lowest concentration that inhibits growth of the organism. Lower therefore signals a more susceptible organism.

Type in all cases: functional
Assay [1] has as its system Staphylococcus epidermidis. Put plainly: Minimum inhibitory concentration (MIC) preventing growth of Staphylococcus epidermidis.
For another assay, the system named is Bacillus subtilis. The assay can be described thus: Minimum inhibitory concentration (MIC) preventing growth of Bacillus subtilis.
Another assay deals with Morganella morganii. The assay can be described thus: Minimum inhibitory concentration (MIC) preventing growth of Morganella morganii.
The next assay has as its system Enterococcus faecalis. The assay can be described thus: Minimum inhibitory concentration (MIC) preventing growth of Streptococcus faecalis ATCC 10541.
The subject of a further assay is Bacillus cereus. The assay can be described thus: Minimum inhibitory concentration (MIC) preventing growth of Bacillus cereus.
For a further assay, the system named is Staphylococcus aureus. Put plainly: Minimum inhibitory concentration (MIC) preventing growth of […].
In the next assay the test system is Klebsiella pneumoniae. The assay can be described thus: Minimum inhibitory concentration (MIC)preventing growth of Klebsiella pneumoniae.
The next assay has as its system Escherichia coli. The assay can be described thus: Minimum inhibitory concentration (MIC)preventing growth of Escherichia coli.
A further assay concerns Pseudomonas aeruginosa. The assay can be described thus: Minimum inhibitory concentration (MIC)preventing growth of Pseudomonas aeruginosa.
Another assay concerns Proteus vulgaris. Put plainly: Minimum inhibitory concentration (MIC) preventing growth of Proteus vulgaris.
In a further assay the test system is Enterobacter cloacae. Put plainly: Minimum inhibitory concentration (MIC)preventing growth of Enterobacter cloacae.

Regarding `CC1(N)CN(c2c(F)cc3c(=O)c4c(=O)[nH]sc4n(C4CC4)c3c2F)C1`, the MIC in assay [1] came out at 0.06 µg/mL (≈ 0.159 µM); against Bacillus subtilis it was 0.03 µg/mL (≈ 0.0793 µM); in the assay on Morganella morganii, 0.06 µg/mL (≈ 0.159 µM); against Enterococcus faecalis, 0.5 µg/mL (≈ 1.32 µM); in the assay on Bacillus cereus, 0.12 µg/mL (≈ 0.317 µM); in the assay with Staphylococcus aureus it was 0.12 µg/mL (≈ 0.317 µM). The MIC is 0.06 µg/mL (≈ 0.159 µM) against Klebsiella pneumoniae; 0.06 µg/mL (≈ 0.159 µM) against Escherichia coli; 0.5 µg/mL (≈ 1.32 µM) against Pseudomonas aeruginosa; 0.12 µg/mL (≈ 0.317 µM) against Proteus vulgaris; 0.06 µg/mL (≈ 0.159 µM) against Enterobacter cloacae.

For the compound `Nc1c(F)c(N2CC(N)C2)c(F)c2c1c(=O)c(C(=O)O)cn2-c1ccc(F)cc1F`, the MIC in [1] worked out at 0.06 µg/mL (≈ 0.142 µM); against Bacillus subtilis, 0.015 µg/mL (≈ 0.0355 µM); against Morganella morganii it was 0.03 µg/mL (≈ 0.071 µM); against Enterococcus faecalis, 0.06 µg/mL (≈ 0.142 µM); in the assay on Bacillus cereus it was 0.06 µg/mL (≈ 0.142 µM); against Staphylococcus aureus, 0.03 µg/mL (≈ 0.071 µM). Also, the MIC with Klebsiella pneumoniae is 0.06 µg/mL (≈ 0.142 µM); in the assay on Escherichia coli it was 0.015 µg/mL (≈ 0.0355 µM); against Pseudomonas aeruginosa, 0.12 µg/mL (≈ 0.284 µM); in the assay with Proteus vulgaris, 0.12 µg/mL (≈ 0.284 µM); with Enterobacter cloacae, 0.015 µg/mL (≈ 0.0355 µM).

Take `CNC1(C)CN(c2cc3c(cc2F)c(=O)c2c(=O)[nH]sc2n3C2CC2)C1`: the MIC turned out to be 0.06 µg/mL (≈ 0.16 µM) in [1]; 0.03 µg/mL (≈ 0.0801 µM) against Bacillus subtilis; 0.06 µg/mL (≈ 0.16 µM) against Morganella morganii; 0.06 µg/mL (≈ 0.16 µM) against Enterococcus faecalis; 0.06 µg/mL (≈ 0.16 µM) in the assay on Bacillus cereus; 0.06 µg/mL (≈ 0.16 µM) against Staphylococcus aureus. Further, the MIC with Klebsiella pneumoniae worked out at 0.03 µg/mL (≈ 0.0801 µM); against Escherichia coli, 0.03 µg/mL (≈ 0.0801 µM); against Pseudomonas aeruginosa, 0.5 µg/mL (≈ 1.34 µM); in the assay on Proteus vulgaris, 0.12 µg/mL (≈ 0.32 µM); in the assay with Enterobacter cloacae, 0.06 µg/mL (≈ 0.16 µM).

Turning to `CCn1cc(C(=O)O)c(=O)c2c(N)c(F)c(N3CC(C)(N)C3)c(F)c21`, the MIC in assay [1] amounted to 0.5 µg/mL (≈ 1.42 µM); in the assay with Bacillus subtilis it was 0.12 µg/mL (≈ 0.341 µM); against Morganella morganii, 0.25 µg/mL (≈ 0.71 µM); against Enterococcus faecalis it was 1 µg/mL (≈ 2.84 µM); with Bacillus cereus, 1 µg/mL (≈ 2.84 µM); in the assay with Staphylococcus aureus, 0.5 µg/mL (≈ 1.42 µM). Besides, the MIC with Klebsiella pneumoniae is 0.25 µg/mL (≈ 0.71 µM); in the assay on Escherichia coli it was 0.25 µg/mL (≈ 0.71 µM); in the assay with Pseudomonas aeruginosa, 2 µg/mL (≈ 5.68 µM); in the assay on Proteus vulgaris, 0.5 µg/mL (≈ 1.42 µM); in the assay on Enterobacter cloacae, 0.25 µg/mL (≈ 0.71 µM).

Take `O=C(O)c1cn(C2CC2)c2c(F)c(N3CC(C(=O)O)C3)c(F)cc2c1=O`: the MIC (in assay [1]; with Bacillus subtilis; against Morganella morganii; in the assay with Enterococcus faecalis; in the assay on Bacillus cereus; in the assay with Staphylococcus aureus) was more than 16 µg/mL each time. Further, the MIC in the assay with Klebsiella pneumoniae, in the assay with Escherichia coli, in the assay on Pseudomonas aeruginosa, in the assay with Proteus vulgaris and in the assay with Enterobacter cloacae was more than 16 µg/mL in each case.

As for `CCn1cc(C(=O)O)c(=O)c2cc(F)c(N3CC(C)(N)C3)cc21`, the MIC in assay [1] came to 0.5 µg/mL (≈ 1.57 µM); against Bacillus subtilis, 0.25 µg/mL (≈ 0.783 µM); against Morganella morganii it was 0.25 µg/mL (≈ 0.783 µM); in the assay with Enterococcus faecalis, 0.25 µg/mL (≈ 0.783 µM); in the assay with Bacillus cereus it was 1 µg/mL (≈ 3.13 µM); with Staphylococcus aureus, 0.5 µg/mL (≈ 1.57 µM). Also, the MIC with Klebsiella pneumoniae was found to be 0.5 µg/mL (≈ 1.57 µM); with Escherichia coli, 0.5 µg/mL (≈ 1.57 µM); with Pseudomonas aeruginosa it was 2 µg/mL (≈ 6.26 µM); in the assay with Proteus vulgaris it was 1 µg/mL (≈ 3.13 µM); in the assay with Enterobacter cloacae it was 0.5 µg/mL (≈ 1.57 µM).

For `CC1(N)CN(c2cc3c(cc2F)c(=O)c(C(=O)O)cn3-c2ccc(F)cc2)C1`, the MIC amounted to 0.12 µg/mL (≈ 0.311 µM) in assay [1]; 0.06 µg/mL (≈ 0.156 µM) against Bacillus subtilis; 0.25 µg/mL (≈ 0.649 µM) in the assay on Morganella morganii; 2 µg/mL (≈ 5.19 µM) in the assay on Enterococcus faecalis; 0.12 µg/mL (≈ 0.311 µM) against Bacillus cereus; 0.12 µg/mL (≈ 0.311 µM) against Staphylococcus aureus. The MIC worked out at 0.12 µg/mL (≈ 0.311 µM) with Klebsiella pneumoniae; 0.12 µg/mL (≈ 0.311 µM) in the assay with Escherichia coli; 2 µg/mL (≈ 5.19 µM) in the assay with Pseudomonas aeruginosa; 0.25 µg/mL (≈ 0.649 µM) in the assay on Proteus vulgaris; 0.12 µg/mL (≈ 0.311 µM) in the assay with Enterobacter cloacae.

Turning to `CCNCC1(C)CN(c2c(F)cc3c(=O)c(C(=O)O)cn(C4CC4)c3c2F)C1`, the MIC in assay [1] worked out at 0.25 µg/mL (≈ 0.639 µM); in the assay with Bacillus subtilis it was 0.12 µg/mL (≈ 0.307 µM); in the assay on Morganella morganii, 0.25 µg/mL (≈ 0.639 µM); against Enterococcus faecalis it was 1 µg/mL (≈ 2.55 µM); in the assay with Bacillus cereus, 0.25 µg/mL (≈ 0.639 µM); against Staphylococcus aureus it was 0.25 µg/mL (≈ 0.639 µM). Besides, the MIC in the assay with Klebsiella pneumoniae was determined as 0.25 µg/mL (≈ 0.639 µM); against Escherichia coli it was 0.25 µg/mL (≈ 0.639 µM); against Pseudomonas aeruginosa, 2 µg/mL (≈ 5.11 µM); against Proteus vulgaris it was 0.25 µg/mL (≈ 0.639 µM); in the assay on Enterobacter cloacae it was 0.25 µg/mL (≈ 0.639 µM).

In the case of `CC1(N)CN(c2c(F)c(N)c3c(=O)c(C(=O)O)cn(-c4ccc(F)cc4F)c3c2F)C1`, the MIC in [1] amounted to 0.06 µg/mL (≈ 0.137 µM); in the assay with Bacillus subtilis it was 0.06 µg/mL (≈ 0.137 µM); with Morganella morganii it was 0.12 µg/mL (≈ 0.275 µM); against Enterococcus faecalis, 0.03 µg/mL (≈ 0.0687 µM); against Bacillus cereus, 0.06 µg/mL (≈ 0.137 µM); against Staphylococcus aureus it was 0.06 µg/mL (≈ 0.137 µM). Further, the MIC against Klebsiella pneumoniae was determined as 0.25 µg/mL (≈ 0.573 µM); in the assay on Escherichia coli it was 0.12 µg/mL (≈ 0.275 µM); against Pseudomonas aeruginosa, 0.5 µg/mL (≈ 1.15 µM); against Proteus vulgaris, 0.25 µg/mL (≈ 0.573 µM); with Enterobacter cloacae, 0.06 µg/mL (≈ 0.137 µM).

In the case of `CNC1CN(c2cc3c(cc2F)c(=O)c2c(=O)[nH]sc2n3C2CC2)C1`, the MIC in assay [1] was found to be 0.12 µg/mL (≈ 0.333 µM); with Bacillus subtilis, 0.03 µg/mL (≈ 0.0832 µM); with Morganella morganii, 0.06 µg/mL (≈ 0.166 µM); in the assay on Enterococcus faecalis it was 0.25 µg/mL (≈ 0.694 µM); against Bacillus cereus it was 0.12 µg/mL (≈ 0.333 µM); against Staphylococcus aureus it was 0.12 µg/mL (≈ 0.333 µM). Further, the MIC against Klebsiella pneumoniae was 0.12 µg/mL (≈ 0.333 µM); with Escherichia coli, 0.03 µg/mL (≈ 0.0832 µM); against Pseudomonas aeruginosa, 0.5 µg/mL (≈ 1.39 µM); with Proteus vulgaris, 0.12 µg/mL (≈ 0.333 µM); against Enterobacter cloacae, 0.12 µg/mL (≈ 0.333 µM).

For the origin of these results see ChEMBL document CHEMBL1126625, “7-Azetidinylquinolones as antibacterial agents. Synthesis and structure-activity relationships” (J Med Chem, 1993).
